In article PMC9151804, “Carotenoid binding in Gloeobacteria rhodopsin provides insights into divergent evolution of xanthorhodopsin types” (Communications Biology, 2022):

Key:
Experiment in all cases: co-expression in E. coli, purification, chromophore extraction and absorbance
Assay type in all cases: binding
Details in all cases: all-trans-retinal-bound protein; 0.02% DDM, 150 mM NaCl, 50 mM Tris, pH 7.0
[1] = target: T1, Gloeobacter rhodopsin (GR) (Gloeobacter violaceus, UniProt Q7NP59, S181G)
T1 construct: gene gll0198
T1 sequence (Q7NP59 entry or part of it S181G): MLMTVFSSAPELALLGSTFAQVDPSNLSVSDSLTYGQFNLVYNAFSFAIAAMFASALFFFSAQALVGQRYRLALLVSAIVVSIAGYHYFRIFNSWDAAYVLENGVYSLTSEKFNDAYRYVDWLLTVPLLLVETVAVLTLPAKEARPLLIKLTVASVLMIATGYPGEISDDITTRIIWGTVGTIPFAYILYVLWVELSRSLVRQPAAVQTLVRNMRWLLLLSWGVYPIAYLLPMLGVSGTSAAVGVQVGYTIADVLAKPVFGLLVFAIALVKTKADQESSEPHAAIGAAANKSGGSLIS

[2] = target: T2, Gloeobacter rhodopsin (GR) (Gloeobacter violaceus, UniProt Q7NP59, S221G)
T2 construct: gene gll0198
T2 sequence (Q7NP59 entry or part of it S221G): as the sequence (Q7NP59 entry or part of it S181G) above, with G181S, S221G counted along it

[3] = target: T3, Gloeobacter rhodopsin (GR) (Gloeobacter violaceus, UniProt Q7NP59, P226G/I227G)
T3 construct: gene gll0198
T3 sequence (Q7NP59 entry or part of it P226G/I227G): as the sequence (Q7NP59 entry or part of it S181G) above, with G181S, P226G, I227G counted along it

[4] = target: T4, Gloeobacter rhodopsin (GR) (Gloeobacter violaceus, UniProt Q7NP59, F185G)
T4 construct: gene gll0198
T4 sequence (Q7NP59 entry or part of it F185G): as the sequence (Q7NP59 entry or part of it S181G) above, with G181S, F185G counted along it

[5] = target: T5, Gloeobacter rhodopsin (GR) (Gloeobacter violaceus, UniProt Q7NP59, T179G/T182G/F185G)
T5 construct: gene gll0198
T5 sequence (Q7NP59 entry or part of it T179G/T182G/F185G): as the sequence (Q7NP59 entry or part of it S181G) above, with T179G, G181S, T182G, F185G counted along it

[6] = target: T6, Gloeobacter rhodopsin (GR) (Gloeobacter violaceus, UniProt Q7NP59)
T6 construct: gene gll0198
T6 sequence (Q7NP59 1-298): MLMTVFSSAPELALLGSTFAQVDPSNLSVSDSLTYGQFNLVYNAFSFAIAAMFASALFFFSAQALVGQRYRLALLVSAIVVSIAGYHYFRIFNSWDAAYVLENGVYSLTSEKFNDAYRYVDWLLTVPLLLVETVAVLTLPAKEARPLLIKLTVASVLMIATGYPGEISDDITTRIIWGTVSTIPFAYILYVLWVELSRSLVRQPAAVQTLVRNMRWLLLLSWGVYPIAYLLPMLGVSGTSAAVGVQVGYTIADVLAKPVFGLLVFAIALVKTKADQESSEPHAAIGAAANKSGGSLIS

[7] = target: T7, Gloeobacter rhodopsin (GR) (Gloeobacter violaceus, UniProt Q7NP59, G178W)
T7 construct: gene gll0198
T7 sequence (Q7NP59 entry or part of it G178W): as the sequence (Q7NP59 entry or part of it S181G) above, with G178W, G181S counted along it

[8] = target: T8, Gloeobacter rhodopsin (GR) (Gloeobacter violaceus, UniProt Q7NP59, T179G)
T8 construct: gene gll0198
T8 sequence (Q7NP59 entry or part of it T179G): as the sequence (Q7NP59 entry or part of it S181G) above, with T179G, G181S counted along it

[9] = target: T9, Gloeobacter rhodopsin (GR) (Gloeobacter violaceus, UniProt Q7NP59, T179G/T182G)
T9 construct: gene gll0198
T9 sequence (Q7NP59 entry or part of it T179G/T182G): as the sequence (Q7NP59 entry or part of it S181G) above, with T179G, G181S, T182G counted along it

[10] = target: T10, Gloeobacter rhodopsin (GR) (Gloeobacter violaceus, UniProt Q7NP59, P226G)
T10 construct: gene gll0198
T10 sequence (Q7NP59 entry or part of it P226G): as the sequence (Q7NP59 entry or part of it S181G) above, with G181S, P226G counted along it

[11] = target: T11, Gloeobacter rhodopsin (GR) (Gloeobacter violaceus, UniProt Q7NP59, I227G)
T11 construct: gene gll0198
T11 sequence (Q7NP59 entry or part of it I227G): as the sequence (Q7NP59 entry or part of it S181G) above, with G181S, I227G counted along it

carotenoid/retinal binding ratio [2]: ~ 69%
carotenoid/retinal binding ratio [3]: ~ 29%
carotenoid/retinal binding ratio [4]: ~ 37%
carotenoid/retinal binding ratio [5]: ~ 5%
carotenoid/retinal binding ratio [6]: ~ 87%
carotenoid/retinal binding ratio [8]: ~ 41%
carotenoid/retinal binding ratio [9]: ~ 19%
carotenoid/retinal binding ratio [10]: ~ 48%
carotenoid/retinal binding ratio [11]: ~ 42%
SMILES: CC1=C(/C=C/C(C)=C/C=C/C(C)=C/C=C/C=C(C)/C=C/C=C(C)/C=C/C2=C(C)C(=O)CCC2(C)C)C(C)(C)CCC1=O [canthaxanthin]
carotenoid/retinal binding ratio [1]: All mutants critical affect the carotenoid binding but not S181G
carotenoid binding [7]: with retinal and carotenoid showed no carotenoid binding in the absorption spectrum
